The values that follow come from patent US20080318861A1, “Mucosal Delivery of Stabilized Formulations of Exendin” (NASTECH PHARMACEUTICAL COMPANY INC., priority 2005, published 2008).

Data set [1] relates to normal, human-derived tracheal/bronchial epithelial cells (EpiAirway Tissue Model). Description: MTT cell viability assay. Format: cell-based. Particulars: for toxicity / cell viability in excipient screening (in words): cell viability as measured by LDH and MTT, exenatide formulation containing the named excipient. An excerpt:
The extraction plate was covered and scaled to reduce evaporation of extractant.

For data set [2], the system named is epithelial tissue barrier (EpiAirway Tissue Model). Kind of data set: In vitro permeation of exenatide across the cellular barrier (EIA analysis). Particulars: for exenatide permeation (in words): compared with AKL-225-126-2 or control without enhancers. An excerpt: Initial studies focused on optimizing the concentrations of Me-β-CD, DDPC, EDTA, and gelatin to enhance exenatide permeation across an epithelial tissue layer.
A second round of studies, series B, systematically screened several excipients for their potential to enhance exenatide permeation to a greater degree than the Me-β-CD, DDPC, EDTA, and gelatin combinations. […] Initially, each excipient (except for those classified as “generally regarded as safe” (GRAS) by the FDA, recombinant gelatins, and PN159), was tested at two concentrations or in combination with Me-β-CD, DDPC, or EDTA. As with series A formulations, each formulation was evaluated for exenatide permeation, ability to reduce TER while not adversely affecting cell viability, and formulation physical stability.

A short description of data set [3]: Physical stability by clarity (absorbance at 630 nm) on storage at 5° C. Particulars: stored at 5° C. (refrigerated) for at least two weeks. The procedure:
In vitro testing of exenatide formulations included a preservatives screen. Physical stability after storage at 5° C. was measured for all formulations tested in vitro. Exenatide formulations were placed in 1 cc glass vials and closed with trifoil lined caps and stored at 5° C. for at least two weeks. Physical stability was monitored by measuring clarity. Clarity of a formulation was determined by measuring absorbance at 630 nm, using the μQuant optical density plate reader for each formulation at days 0, 7, and 14. A 200 μL volume from each vial was placed in a 96-well plate and read against a background of water.
Varying concentrations of sodium benzoate (NaBz) and benzalkonium chloride (BAK), were screened for their effect on physical stability of the three formulations used in in vivo studies. Sodium benzoate was added at 1.0, 2.5, and 5.0 mg/mL, while BAK was tested at 0.2, 1.0, 2.0, and 4.0 mg/mL. To prepare the samples, varying amounts of stock solutions of the two preservatives were added to the three prepared formulations dosed in the PK study. […] The resulting formulations were stored at 5° C. for 5.5 weeks. Physical stability was monitored by measuring the absorbance of the solution at 630 nm.
Sodium benzoate was added at concentrations of 1.0 to 5.0 mg/mL, while BAK was tested at 0.05, 0.075, and 0.1 mg/mL. To prepare the samples, varying amounts of stock solutions of the two preservatives were added to the formulations prepared in the PK study and the pH was adjusted to 4.5 with HCl as necessary. The resulting formulations were stored at 5° C. for 4 weeks. Physical stability was monitored by measuring the absorbance of the solution at […].
The second formulation lacked any buffer to test the effect of the buffer itself on physical stability.

Data set [4] has as its system normal, human-derived tracheal/bronchial epithelial cells (EpiAirway Tissue Model). Description: Lactate dehydrogenase (LDH) cytotoxicity assay. Format: cell-based.
Method: The amount of cell death was assayed by measuring the loss of lactate dehydrogenase (LDH) from the cells using a CytoTox 96 Cytoxicity Assay Kit (Promega Corp., Madison, Wis.). Fresh, cell-free culture medium was used as a blank. 50 μl harvested media (stored at 4° C.) was loaded in a 96-well plate. Substrate Solution (50 μl) was added to each well and the plates were incubated for thirty (30) minutes at ambient temperature in the dark. Following incubation, 50 μl of Stop Solution was added to each well and the reaction was monitored at A490 using an optical density plate reader. Media alone applied to the apical side served as a negative control while triton X served as the positive control for the LDH assay.
Data set [5] shares this test system. Description: Transepithelial electrical resistance (TER) in the in vitro nasal epithelial model. Format: cell-based. Particulars: 60 min exposure.
From the text: A cell line from MatTek Corp. (Ashland, Mass.) was used as the source of normal, human-derived tracheal/bronchial epithelial cells (EpiAirway™ Tissue Model). […] The cells were provided as inserts grown to confluence on Millipore Milicell-CM filters comprised of transparent hydrophilic Teflon (PTFE). […] TER measurements were accomplished using the Endohm-12 Tissue Resistance Measurement Chamber connected to the EVOM Epithelial Voltohmmeter (World Precision Instruments, Sarasota, Fla.) with the electrode leads. The electrodes and a tissue culture blank insert were equilibrated for at least twenty (20) minutes in phosphate buffered solution with the power off prior to checking calibration. The background resistance was measured with 1.5 mL media in the Endohm tissue chamber and 300 μL media in a blank Millicell-CM insert. […] The background resistance of the blank insert was 5-12 ohms.
TER was measured before and after the sixty (60) minute incubation. […] After the 60 minute incubation with test samples, 200 μL of fresh media was gently added to the apical surface of each test sample insert and final TER was measured for each insert. […] Resistance is expressed as follows: (resistance measured−blank)×0.6 cm^2.

dimethyl-β-cyclodextrin [DMe-β-CD]: the “toxicity / cell viability in excipient screening (in words)” value (from here on “toxicity / cell viability”) in data set [1] is on record as “more toxic to the cells than Me-β-CD”. Moreover, the “fold increase in exenatide permeation over AKL-225-126-2” value in data set [2] (full dose volume (100 µL)) was 1.5 fold. In the case of `CCO` [ethanol], the “exenatide permeation (in words)” value in data set [2] is “did not enhance exenatide permeation”. With `OC[C@H]1O[C@@H]2O[C@H]3[C@H](O)[C@@H](O)[C@@H](O[C@H]4[C@H](O)[C@@H](O)[C@@H](O[C@H]5[C@H](O)[C@@H](O)[C@@H](O[C@H]6[C@H](O)[C@@H](O)[C@@H](O[C@H]7[C@H](O)[C@@H](O)[C@@H](O[C@H]8[C@H](O)[C@@H](O)[C@@H](O[C@H]1[C@H](O)[C@H]2O)O[C@@H]8CO)O[C@@H]7CO)O[C@@H]6CO)O[C@@H]5CO)O[C@@H]4CO)O[C@@H]3CO` [β-cyclodextrin], the “physical stability (clarity)” value in data set [3] is listed as “became turbid at refrigerated conditions”. As for `CCCCCCCC/C=C\CCCCCCCC(=O)O` [oleic acid], in data set [1], the “toxicity / cell viability” value was “lowered cell viability”. Take triton X: the “cytotoxicity as measured by % MTT (in words)” value in data set [1] is “significant toxicity”. Besides, the “cytotoxicity as measured by % LDH (in words)” value in data set [4] was “significant toxicity”. Besides, the “TER reduction (in words)” value in data set [5] is given as “lowest possible TER”. For the molecule `CCCCCCCCCCCCCCCC(=O)OC(CC(=O)[O-])C[N+](C)(C)C` (racemic) [Palmitoyl-DL-carnitine, palmitoyl-DL-carnitine], the “toxicity / cell viability” value in data set [1] is reported as “toxic at high concentrations”. In addition, the “physical stability (clarity)” value in data set [3] is “physically instable without Me-β-CD”. With `CCCCCCCCC(=O)OC[C@H](COP(=O)([O-])OCC[N+](C)(C)C)OC(=O)CCCCCCCC` [dinonanoyl glycero phosphatidylcholine], the “physical stability (clarity)” value in data set [3] is recorded as “becoming turbid in less than two weeks at refrigerated conditions”. Turning to `O=C(O)CN(CCN(CC(=O)O)CC(=O)O)CC(=O)O` [EDTA], in data set [1], the “toxicity / cell viability” value is given as “cell viability began to decrease”. Consider `C[C@H](CCC(=O)NCC(=O)[O-])[C@H]1CC[C@H]2[C@@H]3[C@H](O)C[C@@H]4C[C@H](O)CC[C@]4(C)[C@H]3C[C@H](O)[C@]12C.[Na+]` [Sodium glycocholate, sodium glycocholate], for which, in data set [3], the “physical stability (clarity)” value is given as “physically instable at high concentrations”. Turning to `CC(O)CO` (stereo not shown) [propylene glycol], in data set [2], the “exenatide permeation (in words)” value is “failed to enhance permeation at all”. Consider `CCCCCCCC(=O)[O-].[Na+]` [sodium caprylate], for which, in data set [1], the “toxicity / cell viability” value was “toxic at 20 mM with Me-β-CD and EDTA”. Besides, in data set [3], the “physical stability (clarity)” value is “physical instability in the absence of Me-β-CD”. For the same molecule, the “exenatide permeation (in words)” value in data set [2] was “failed to enhance exenatide permeation to any extent alone or with permeation enhancers”.

Consider Tween-80, for which, in data set [2], the “exenatide permeation (in words)” value was “failed to enhance exenatide permeation to the same extent as formulation AKL-225-126-2”.

Regarding hydroxypropyl-β-cyclodextrin [H-β-CD], in data set [2], the “exenatide permeation (in words)” value is reported as “did not increase permeation significantly”.

Take `CCCCCCCCCC(=O)[O-].[Na+]` [sodium caprate]: the “toxicity / cell viability” value in data set [1] is given as “low cell viability at 50 mM alone”. Also, in data set [3], the “physical stability (clarity)” value is on record as “physical instability in the absence of Me-β-CD”. For `CCCCCCCCO[C@@H]1O[C@H](CO)[C@H](O)[C@H](O)[C@H]1O` [galactopyranoside, n-Octyl-β-D-galactopyranoside], the “toxicity / cell viability” value in data set [1] is reported as “toxic at 10 mg/mL”.
